MIC and MFC data for 19 compounds are collected here from patent US6326395A, “Antifungal activity of dicationic molecules” (priority 1999, dated 2001).

≈ marks a conversion by molar mass, not a printed value. Where two headings read alike, the source gives them in different places.

The subject of test [1] is Candida albicans. As to the kind of experiment: in vitro antifungal susceptibility testing (MIC, MFC; broth macrodilution), Tables 1-7. The class given is cell-based. As to conditions: for MIC: read-out: MIC80 (Minimum inhibitory concentration 80%); for MFC: read-out: MFC (Minimum fungicidal concentration). The source says: (§1) The fungi that were employed included two reference strains, C. neoformans var. neoformans H99 and C. albicans A39 and the following clinical isolates: (1) two strains of fluconazole-resistant C. neoformans var. neoformans (135.95 and 114.96); (2) two strains of C. neoformans var. gattii (119.95 and 114.95); (3) two strains of fluconazole-resistant C. albicans (102.96 and 103.96); and (4) one strain each of Torulopsis glabrata (142.91), Candida parapsilosis (111.96), Candida krusei (132.91), C. tropicalis (110.96), Candida lusitaniae (111.92), Fusarium solani (152.89), Aspergillus fumigatus (168.95), and Aspergillus flavus (112.96). Antifungal susceptibility testing was performed using an RPMI-1640 medium (Sigma Chemical Co., St. Louis, Mo.) with glutamine, without sodium bicarbonate, and buffered at pH 7.0 with 0.165 M morpholine-propanesulfonic acid (MOPS).
(§2) In vitro susceptibility testing in the form of Minimum Inhibitory Concentration (MIC) experiments were performed using the broth macrodilution method according to the recommendations of the National Committee for Clinical Laboratory Standards (see 1995 manual). The only difference compared to the standardized procedure was the choice of drug dilutions ranging from 100 to 0.09 μg/ml. Briefly, this procedure specifies an inoculum grown at 35° C. and adjusted to a concentration of 0.5-2.5×10^3 CFU/ml with an incubation of the test performed at 35° C. and reading at 48 hours for all yeasts except for C. neoformans which is interpreted at 72 hr.
(§3) Minimum Fungicidal Concentration (MFC) experiments were adapted from a method by McGinnis (McGinnis, M. R., (1980) "Susceptibility testing and bioassay procedure", p. 431, Academic Press, Inc., New York). Briefly, 10 μl aliquots from tubes with growth inhibition were plated onto Sabouraud agar plates.
(§4) The fungi that were employed included two quality control reference strains, C. neoformans var. neoformansH99 and C. albicans A39 and the following clinical isolates: (1) four strains of C. neoformans var. neoformans (167.95; 135.95; 114.96; and 133.95) of which three were fluconazole-resistant>64 μg/ml (135.95; 114.96; and 133.95); (2) two strains of C. neoformans var. gattii (119.95 and 114.95); (3) two strains of fluconazole-resistant>64 μg/ml C. albicans (102.96 and 103.96); and (4) one strain each of C. glabrata (142.91), Candida parapsilosis (111.96), Candida krusei (132.91), C. tropicalis (110.96), Candida lusitaniae (111.92), Fusarium solani (152.89), Aspergillus fumigatus (168.95), Rhizopus arrhizus (117.89), Paecilomyces lilacinus (137.90), and Aspergillus flavus (112.96). Antifungal susceptibility testing was performed using an RPMI-1640 medium (Sigma Chemical Co., St. Louis, Mo.) with glutamine, without sodium bicarbonate, and buffered at pH 7.0 with 0.165 M morpholinepropanesulfonic acid (MOPS).
(§5) Minimum Fungicidal Concentration (MFC) experiments were adapted from a method by McGinnis (McGinnis, M. R., (1980) "Susceptibility testing and bioassay procedure", p.431, Academic Press, Inc., New York). Briefly, 10 μl aliquots from tubes with growth inhibition were plated onto Sabouraud agar plates.

In test [2] the test system is Cryptococcus neoformans. Described as above. It is filed as cell-based. The conditions noted are these: for MIC: read-out: MIC80 (Minimum inhibitory concentration 80%); for MFC: read-out: MFC (Minimum fungicidal concentration).
Description: as §1, §2, §3, §4, §5

The mark [3] stands for this setting: Table 1, three or fewer colonies.

Regarding `N=C(N)c1ccc(OCCOc2ccc(C(=N)N)cc2)cc1` [Compound 1], the MIC in test [1] (35° C., reading at 48 hours) is 3.12 µg/mL (≈ 10.5 µM); in test [2] (35° C., 72 hr) it was more than 100 µg/mL. In addition, the MFC in test [1] (three or fewer colonies) turned out to be 100 µg/mL (≈ 335 µM).

In the case of `N=C(N)c1ccc(OCCOc2ccc(C(=N)N)cc2N)c(N)c1` [Compound 2], the MIC in test [1] (35° C., reading at 48 hours) was 25 µg/mL (≈ 76.1 µM); in test [2] (35° C., 72 hr), more than 100 µg/mL.

Consider `N=C(N)c1ccc(OCCCOc2ccc(C(=N)N)cc2)cc1` [Compound 3], for which the MIC was 3.12 µg/mL (≈ 9.99 µM) in test [1] (35° C., reading at 48 hours) and 6.25 µg/mL (≈ 20 µM) in test [2] (35° C., 72 hr). The MFC was found to be 3.12 µg/mL (≈ 9.99 µM) in test [1] (three or fewer colonies) and 6.25 µg/mL (≈ 20 µM) in test [2] (setting [3]).

With `COc1cc(C(=N)N)ccc1OCCCOc1ccc(C(=N)N)cc1OC` [Compound 4], the MIC in test [1] (35° C., reading at 48 hours) was 12.5 µg/mL (≈ 33.6 µM); in test [2] (35° C., 72 hr) it was 12.5 µg/mL (≈ 33.6 µM). Also, the MFC in test [1] (three or fewer colonies) amounted to 50 µg/mL (≈ 134 µM); in test [2] (setting [3]) it was 12.5 µg/mL (≈ 33.6 µM).

As for `NC(=NO)c1ccc(OCCCOc2ccc(C(N)=NO)cc2)cc1` [Compound 5], the MIC in test [1] (35° C., reading at 48 hours) was more than 100 µg/mL; in test [2] (35° C., 72 hr), more than 100 µg/mL.

Turning to `COc1cc(C(N)=NO)ccc1OCCCOc1ccc(C(N)=NO)cc1OC` [Compound 6], the MIC in test [1] (35° C., reading at 48 hours) is more than 100 µg/mL; in test [2] (35° C., 72 hr) it was more than 100 µg/mL.

In the case of `N=C(N)c1cccc(OCCCOc2cccc(C(=N)N)c2)c1` [Compound 7], the MIC in test [1] (35° C., reading at 48 hours) is more than 100 µg/mL. For the same compound, the MFC in test [1] (three or fewer colonies) was more than 100 µg/mL.

With `N=C(N)c1ccc(NCCCNc2ccc(C(=N)N)cc2)cc1` [Compound 8], the MIC in test [1] (35° C., reading at 48 hours) came to 0.19 µg/mL (≈ 0.612 µM); in test [2] (35° C., 72 hr), 1.56 µg/mL (≈ 5.03 µM). Further, the MFC in test [1] (three or fewer colonies) is 0.39 µg/mL (≈ 1.26 µM); in test [2] (setting [3]), 6.25 µg/mL (≈ 20.1 µM).

As to `N=C(N)c1ccc(NCCCNc2ccc(C(=N)N)cc2N)c(N)c1` [Compound 9], the MIC worked out at 12.5 µg/mL (≈ 36.7 µM) in test [1] (35° C., reading at 48 hours) and 25 µg/mL (≈ 73.4 µM) in test [2] (35° C., 72 hr). Moreover, the values for the MFC in test [1] (three or fewer colonies) and in test [2] (setting [3]) were more than 100 µg/mL and 50 µg/mL (≈ 147 µM), respectively.

Regarding `N=C(N)c1ccc(NCCCNc2ccc(C(=N)N)cc2[N+](=O)[O-])c([N+](=O)[O-])c1` [Compound 10], the MIC in test [1] (48 h) and in test [2] (72 h) was 100 µg/mL (≈ 250 µM) throughout. Moreover, the MFC in test [1] and in test [2] was 100 µg/mL (≈ 250 µM) in each case.

With `N=C(N)c1ccc(OCCCCOc2ccc(C(=N)N)cc2)cc1` [Compound 11], the MIC worked out at 25 µg/mL (≈ 76.6 µM) in test [1] (35° C., reading at 48 hours) and 3.12 µg/mL (≈ 9.56 µM) in test [2] (35° C., 72 hr). Moreover, the MFC in test [1] (three or fewer colonies) was 50 µg/mL (≈ 153 µM); in test [2] (setting [3]), 6.25 µg/mL (≈ 19.1 µM).

Regarding `COc1cc(C(=N)N)ccc1OCCCCOc1ccc(C(=N)N)cc1OC` [Compound 12], the MIC in test [1] (35° C., reading at 48 hours) was more than 100 µg/mL; in test [2] (35° C., 72 hr) it was 50 µg/mL (≈ 129 µM). In addition, the MFC in test [1] (three or fewer colonies) and in test [2] (setting [3]) was more than 100 µg/mL each time.

For the compound `N=C(N)c1ccc(OCCCCOc2ccc(C(=N)N)cc2N)c(N)c1` [Compound 13], the MIC in test [1] (35° C., reading at 48 hours) amounted to 6.25 µg/mL (≈ 17.5 µM); in test [2] (35° C., 72 hr), 12.5 µg/mL (≈ 35.1 µM). In addition, the MFC in test [2] (setting [3]) is 50 µg/mL (≈ 140 µM).

Regarding `c1cc(C2=NCCN2)ccc1OCCCCOc1ccc(C2=NCCN2)cc1` [Compound 14], the MIC in test [1] (35° C., reading at 48 hours) was found to be 0.78 µg/mL (≈ 2.06 µM); in test [2] (35° C., 72 hr), 6.25 µg/mL (≈ 16.5 µM). The MFC in test [1] (three or fewer colonies) worked out at 1.56 µg/mL (≈ 4.12 µM); in test [2] (setting [3]) it was 12.5 µg/mL (≈ 33 µM).

`CN1CCN=C1c1ccc(OCCCCOc2ccc(C3=NCCN3C)cc2)cc1` [Compound 15]: the MIC in test [1] (35° C., reading at 48 hours) was more than 100 µg/mL; in test [2] (35° C., 72 hr), more than 100 µg/mL. In addition, the MFC in test [1] (three or fewer colonies) and in test [2] (setting [3]) was more than 100 µg/mL each time.

Turning to `N=C(N)c1cccc(OCCCCOc2cccc(C(=N)N)c2)c1` [Compound 16], the MIC in test [1] (35° C., reading at 48 hours) came out at 12.5 µg/mL (≈ 38.3 µM); in test [2] (35° C., 72 hr), 25 µg/mL (≈ 76.6 µM). Moreover, the MFC in test [1] (three or fewer colonies) and in test [2] (setting [3]) was 25 µg/mL (≈ 76.6 µM) each time.

`N=C(N)c1ccc(OCCCCCOc2ccc(C(=N)N)cc2Cl)c(Cl)c1` [Compound 17]: the MIC in test [1] (35° C., reading at 48 hours) was found to be 3.12 µg/mL (≈ 7.62 µM); in test [2] (35° C., 72 hr), 1.56 µg/mL (≈ 3.81 µM). For the same compound, the MFC in test [1] (three or fewer colonies) turned out to be 6.25 µg/mL (≈ 15.3 µM); in test [2] (setting [3]), 3.12 µg/mL (≈ 7.62 µM).

For `N=C(N)c1ccc(NCCCCCNc2ccc(C(=N)N)cc2)cc1` [Compound 18], the MIC in test [1] (35° C., reading at 48 hours) is not above 0.09 µg/mL; in test [2] (35° C., 72 hr), 0.78 µg/mL (≈ 2.3 µM). In addition, the MFC in test [1] (three or fewer colonies) was 0.39 µg/mL (≈ 1.15 µM); in test [2] (setting [3]), 1.56 µg/mL (≈ 4.61 µM).

For the compound `N=C(N)c1cccc(OCCCCCCOc2cccc(C(=N)N)c2)c1` [Compound 19], the MIC in test [1] (35° C., reading at 48 hours) was 1.58 µg/mL (≈ 4.46 µM); in test [2] (35° C., 72 hr), 6.25 µg/mL (≈ 17.6 µM). Further, the MFC in test [1] (three or fewer colonies) and in test [2] (setting [3]) was 12.5 µg/mL (≈ 35.3 µM) each time.
